Read-outs that look alike come from different tables or passages of the source.
Key:
[1] = tested on: HepG2 cells; test: Cell viability CCK-8 assay, HepG2 cells; format: cell-based; conditions: Homo sapiens, 40 nM, 60 nM and 80 nM, 24 h, read-out: inhibition of HepG2 cells growth (CCK-8)
Experimental: (§1) Hepatocellular cancer cells (HepG2 and Huh-7) were purchased from the cell bank of the Chinese Academy of Science (Shanghai, China). These cells were cultured in Dulbecco’s modified Eagle’s medium (DMEM) containing 10% fetal bovine serum (FBS), penicillin (100 units/mL) and streptomycin (100 units/mL) in a humidified atmosphere with 5% CO2 at 37 °C.
(§2) Furthermore, the effect of cinobufotalin at 40, 60, 80 nM on hepatocellular cancer cells (HepG2 and Huh-7 cells) viability was conducted using Cell Counting Kit - 8 (CCK-8) assay (Sigma-Aldrich, St Louis, MO). In brief, cells were seeded into 96-well plates at 5 × 10^3 cells/well and cultured for 24 h in DMEM medium as described in 1.1 section. Then various concentrations of cinobufotalin (40, 60, 80 nM) were added into cells. After 24 h treatment, 10 μL of CCK-8 solution was added into every well of the plate. The plate was incubated in the incubator for other 4 h, and then the absorbance was measured at 450 nm using a microplate reader (Thermo Scientific, Rockford, IL). The cell viability was calculated by the formula: cell viability (100%) = (OD value of the treated wells - OD value of the blank control wells) / (OD value of the negative control wells - OD value of the blank control wells).

[2] = Bidirectional transport across MDCK II cell monolayers; format: in vitro ADME, canine; conditions: dog; for efflux ratio at 120 min, 20 μM: read-out: ER
Experimental: MDCK II and MDCK-MDR1 cells were seeded into 12-well Transwell polycarbonate membrane inserts (12 mm diameter inserts, 0.4 μm pore size, Corning Costar) at a density of 6 × 10^5 cells/well. Cells were cultured at 37°C under 5% CO2 in DMEM with 10% FBS, and the culture medium was refreshed every other day. Experiments were conducted when the tight junctional cell monolayer formed. First, the cells were washed three times using 37°C preheated HBSS buffer (pH = 7.4) and preincubated in a shaking incubator for 30 min at 37°C. Then the transport studies were initiated after the blank HBSS buffer and dosing solution (HBSS buffer containing cinobufotalin at a final concentration of 20 μM) were added to the receiver compartment and donor compartment, respectively. Verapamil, if used, was added to both compartment during the incubated period. The volumes of the apical side (AP) and basolateral side (BL) were 0.5 and 1.5 mL, respectively. Samples (100 μL) were taken from the receiver compartment every 30 min during the incubation period of 120 min, and then replaced with the same volume of […]. At the end of the incubated period, aliquots of 100 μL were withdrawn from the donor compartment to calculated mass balance. All samples were mixed with 50 μL acetonitrile and centrifuged at 4°C (12,000 g, 10 min. The supernatant was subjected to UPLC-QTOF/MS for analyses.
The apparent permeability (cm/s) from apical-to-basal (Papp,AP-BL) and basal-to-apical (Papp,BL-AP) were calculated according to the following Equation (4), where dQ/dt is the rate of drug permeation (nmol/s), A is the area of polycarbonate membrane (A = 1.12 cm^2), and C0 is the initial concentration of cinobufotalin in the donor compartment.
The efflux ratio (ER) and net flux ratio were calculated according to Equations (5) and (6) as described in our previous research ([Sun et al., 2017]).
(5) ER=Papp, BL−AP/Papp, AP−BL

[3] = tested on: Huh-7 cells; test: Wound healing assay, Huh-7 cells; format: cell-based; conditions: 40, 60 and 80 nM, 24 h
Experimental: as §1
Wound healing assay was used to investigate the effect of cinobufotalin on the migration of HepG2 and Huh-7 cells. Cells were seeded into 6-well plates at the density of 4 × 10^5 cells/well and maintained until reaching monolayer confluence. The cells were scratched using 20-μL pipette tips and rinsed with PBS buffer for three times. And then the cells were cultured in serum-free medium containing different concentrations of cinobufotalin (40, 60, 80 nM). After treatment with cinobufotalin for different lengths of time (0 and 24 h), the width of wound was measured and the images of cells were acquired using inverted microscope (Leica, Wetzlar, German). The rate of wound healing = [(the wound width of 0 h - 24 h)/0 h wound width] × 100%. All experiments were performed in triplicate.

[4] = Liver distribution of cinobufotalin in normal and DEN-injured rats; format: in vivo; conditions: male, Sprague Dawley, rat, iv, 2.5 mg/kg, i.v. 2.5 mg/kg, after the last sampling time point (24 h), read-out: concentration of cinobufotalin in liver tissues
Experimental: For PK studies, the rats were randomly divided into two experimental groups (10 rats for normal rats group and 20 rats for DEN-injured rats group, considering the animal casualties during the modeling process). HCC rat model was established by intraperitoneal administration of 50 mg/kg DEN two times per week ([Fuchs et al., 2014]), and the control group rats were treated with normal saline in the same way. After 14 weeks of administration, three rats were randomly selected and anesthetized by anesthesia cocktail (Ketamine 50 mg/mL, Xylazine 3.3 mg/mL and Acetopromazine 3.3 mg/mL). Then the liver was taken out and photographed to determine whether the animal model was successfully constructed.
Before PK experiment, a cannula was introduced into the jugular vein of the anesthetized rat and administrated carprofen subcutaneously after the surgery. After observation for 24 h, when the activity and excretion of rats were normal, rats were dosed with cinobufotalin at 2.5 mg/kg through jugular vein cannula. Blood samples (200 μL) were withdrawn at each pointed time (5, 10, 15, 30, 45 min, and 1, 1.5, 2, 4, 6, 8, 12, and 24 h) after dosing, and whole blood was transferred into tubes pre-treated with heparin (1000 U/mL). Then an equal volume of saline was injected into rats through jugular vein cannula immediately. […]

[5] = tested on: Huh-7 cells; test: Cell viability CCK-8 assay, Huh-7 cells; format: cell-based; conditions: Homo sapiens, 40 nM, 60 nM and 80 nM, 24 h, read-out: inhibition of Huh-7 cells growth (CCK-8)
Experimental: as §1, §2

[6] = pH 7.4, with verapamil (concentration not stated), in both compartments, cinobufotalin 20 μM, with verapamil

CC(=O)O[C@H]1[C@H]2O[C@]23[C@@H]2CC[C@]4(O)C[C@@H](O)CC[C@]4(C)[C@H]2CC[C@]3(C)[C@H]1c1ccc(=O)oc1 [Cinobufotalin]
inhibition at 0.04 µM [1]: < 15%
Papp A→B at 120 min, 20 μM ([2]; pH 7.4, cinobufotalin 20 μM): 33.8 ± 1.1 ×10⁻⁶ cm/s
Papp B→A at 120 min, 20 μM ([2]; pH 7.4, cinobufotalin 20 μM): 35.9 ± 1.3 ×10⁻⁶ cm/s
efflux ratio at 120 min, 20 μM ([2]; pH 7.4, cinobufotalin 20 μM): 1.1
Papp A→B at 120 min, 20 μM [2, 6]: 23.4 ± 2.2 ×10⁻⁶ cm/s
Papp B→A at 120 min, 20 μM [2, 6]: 24.8 ± 2.7 ×10⁻⁶ cm/s
efflux ratio at 120 min, 20 μM [2, 6]: 1.1
migration of Huh-7 cells (wound healing) [3]: significantly attenuated
concentration at 24 h ([4]; DEN-injured rats): 21 ± 2.7 ng/mL
concentration at 24 h ([4]; normal rats): 39.3 ± 4.9 ng/mL
inhibition at 0.04 µM [5]: < 15%

— PMC6533572, “Elucidation of the Differences in Cinobufotalin’s Pharmacokinetics Between Normal and Diethylnitrosamine-Injured Rats: The Role of P-Glycoprotein” (Frontiers in Pharmacology, 2019)
